How the values were obtained:
[1] = test system: L. major metacyclic promastigotes; test: Murine model for cutaneous leishmaniasis (footpad infection); type: in vivo, BALB/c mice; details: 10^5 L. major metacyclic promastigotes, intraperitoneal daily treatment
Description: (§1) The in vivo experiments were comprised of four groups of five mice each: (1) infected, but not treated [control for the infection—100 μL of DMSO per day, drug diluent]; (2) treated with NC884, NC901 or NC2459, but not infected with the parasites [control for drug toxicity]; (3) infected with the parasites and treated with amphotericin B (8 mg/kg/day) [reference drug; positive control]; and (4) infected with the parasites and treated with NC884, NC901 or NC2459 [experimental group]. Luciferase expressing metacyclic promastigotes L. major (Freidlin V1) were obtained as described previously. Suspensions of 1×10^5 or 1×10^6 parasites per 50 μl of sterile DMEM (endotoxin-free) were injected with a 30G needle into the left hind footpad of BALB/c mice. Two weeks post-infection the compounds were administered once a day by intraperitoneal route, daily for 14 to 17 days. Twice a week, weights were recorded to monitor toxicity and the thickness of the infected footpad and the non-infected footpad was measured with digital calipers to monitor the progression of the disease. The parasitic load also was evaluated through in vivo imaging using luminescence (Kodak Image Station). The mice were injected intra-peritoneally with 150 mg/kg D-luciferin (Sigma, USA) 10 min before imaging, anesthetized with 1-2% isofluorane in oxygen during imaging and the net intensity emitted from the footpad was quantified using the KODAK Image Station software. Parasite burden was expressed as net intensity emitted from L. major infected footpad lesions normalized against the background fluorescence of uninfected mice. The presence/absence of parasites was confirmed by PCR using L. major methionine aminopeptidase (MetAP1) 1 specific primers: 5′-[…]-3′ (SEQ ID NO:1) and 5′-[…]-3′ (SEQ ID NO:2) on cDNA reverse transcribed from total RNA extracted from footpad lysate obtained by macerating footpad tissue fragments in Trizol (Invitrogen Life Technologies, United States) with the gentleMACS™ Dissociator (Miltenyi Biotec GmbH, Germany) following the manufacturer's protocol.

[2] = Weight and toxicity monitoring in treated infected mice; type: in vivo, BALB/c mice; details: 10^5 infection experiment, daily IP treatment
Description: as §1

## C[C@@H]1[C@H](O)[C@@H](C)/C=C/C=C/C=C/C=C/C=C/C=C/C=C/[C@H](O[C@@H]2O[C@H](C)[C@@H](O)[C@H](N)[C@@H]2O)C[C@@H]2O[C@](O)(C[C@@H](O)C[C@@H](O)[C@H](O)CC[C@@H](O)C[C@@H](O)CC(=O)O[C@H]1C)C[C@H](O)[C@H]2C(=O)O [amphotericin B, reference compound]
[1]
  footpad swelling: reduced footpad swelling
[2]
  weight loss: much more dramatic loss in weight

Reference: patent publication US9669016B2, “Antiparasitic effect of Bis[3,5-Bis(Benzylidene)-4-Oxo-1-Piperidinyl]amide Derivatives” (priority 2014, dated 2017)
